Assay [1] concerns the target human SOS1 (nucleotide exchange of K-Ras^G12C) (Homo sapiens, UniProt Q07889). The assay can be described thus: Biochemical assay 2: K-Ras^G12C activation assay by hSOS1 at high GTP concentration (HTRF). The settings on record: high GTP; read-out: Assay 2 (KRAS-Activation by SOS high GTP) activity expressed as IC50.
For assay [2], the target named is K-Ras^G12C : hSOS1 interaction (Homo sapiens, UniProt Q07889). The assay can be described thus: Biochemical assay 1: K-Ras^G12C interaction assay with hSOS1 (HTRF). In kind it is binding. The settings on record: read-out: Assay 1 (KRAS-SOS Interaction) activity expressed as IC50. Background: TR-FRET usually uses a lanthanide donor and a delayed reading to cut background.

For the compound `COc1cc2nc(C)nc(NC(C)c3cc4ccccc4o3)c2cc1OC` (centres unmarked) [Example 20, N-[1-(1-benzofuran-2-yl)ethyl]-6,7-dimethoxy-2-methylquinazolin-4-amine], the IC50 (usually the concentration needed to halve the response being measured) in assay [1] came to 8200 nM; in assay [2] it was 8420 nM.

As to `COc1cc2nc(C)nc(NC(C)c3ccc(-c4cc(Cl)ccc4CN)s3)c2cc1OC` (centres unmarked) [Example 292, N-[1-{5-[2-(aminomethyl)-5-chlorophenyl]thiophen-2-yl}ethyl]-6,7-dimethoxy-2-methylquinazolin-4-amine], the figures for the concentration for half-maximal inhibition (IC50) in assay [1] and in assay [2] were 38.7 nM and 31.5 nM, respectively.

Turning to `COc1cc2nc(C)nc(NC(C)c3ccc(-c4ccccc4CN4CC5(CNC(=O)N5)C4)s3)c2cc1OC` (centres unmarked) [Example 313, 2-[2-(5-{1-[(6,7-dimethoxy-2-methylquinazolin-4-yl)amino]ethyl}thiophen-2-yl)benzyl]-2,5,7-triazaspiro[3.4]octan-6-one], the results for the concentration for half-maximal inhibition (IC50) in assay [1] and in assay [2] were 162 nM and 167 nM, respectively.

`COc1cc2nc(C)nc(NC(C)c3ccc(-c4ccccc4CNCC(F)(F)F)s3)c2cc1OC` (centres unmarked) [Example 300, 6,7-di methoxy-2-methyl-N-{1-[5-(2-{[(2,2,2-trifluoroethyl)amino]methyl}phenyl)thiophen-2-yl]ethyl}quinazolin-4-amine]: the concentration for half-maximal inhibition (IC50) in assay [1] came out at 3070 nM; in assay [2] it was 3150 nM.

With `COc1cc2nc(C)nc(N[C@H](C)c3cccc(-c4cnn(C)c4)c3)c2cc1OC` [Example 338, 6,7-dimethoxy-2-methyl-N-{(1R)-1-[3-(1-methyl-1H-pyrazol-4-yl)phenyl]ethyl}quinazolin-4-amine], the figures for the IC50 in assay [1] and in assay [2] were 838 nM and 325 nM, respectively.

With `COc1cc2nc(C)nc(NC(C)c3ccc(-c4ccccc4CN4CC[C@H]4CO)s3)c2cc1OC` (stereo partly drawn) [Example 318, {1-[(2S)-(5-{1-[(6,7-dimethoxy-2-methylquinazolin-4-yl)amino]ethyl}thiophen-2-yl)benzyl]azetidin-2-yl}methanol], the IC50 in assay [1] amounted to 167 nM; in assay [2] it was 171 nM.

In the case of `COc1cc2nc(C)nc(N[C@H](C)c3cccc(-c4c(C)n[nH]c4C)c3)c2cc1OC` [Example 334, N-{(1R)-1-[3-(3,5-dimethyl-1H-pyrazol-4-yl)phenyl]ethyl}-6,7-dimethoxy-2-methylquinazolin-4-amine], the IC50 was found to be 773 nM in assay [1] and 362 nM in assay [2].

Consider `COc1cc2nc(C)nc(NC(C)c3ccc(-c4ccccc4CN4CC(O)C4)s3)c2cc1OC` (centres unmarked) [Example 312, 1-[2-(5-{1-[(6,7-dimethoxy-2-methylquinazolin-4-yl)amino]ethyl}thiophen-2-yl)benzyl]azetidin-3-ol], for which the IC50 came out at 66.5 nM in assay [1] and 68.2 nM in assay [2].

Take `COc1cc2nc(C)nc(NC(C)c3ccc(-c4cccc5sc(C(N)=O)c(N)c45)s3)c2cc1OC` (centres unmarked) [Example 278, 3-amino-4-(5-{1-[(6,7-dimethoxy-2-methylquinazolin-4-yl)amino]ethyl}thiophen-2-yl)-1-benzothiophene-2-carboxamide]: the IC50 was found to be 3710 nM in assay [1] and 12500 nM in assay [2].

On to `COc1cc2nc(C)nc(NC(C)c3c(F)ccc4[nH]ncc34)c2cc1OC` (centres unmarked) [Example 18, N-[1-(5-fluoro-1H-indazol-4-yl)ethyl]-6,7-dimethoxy-2-methylquinazolin-4-amine], for which the concentration for half-maximal inhibition (IC50) in assay [1] came out at 7680 nM; in assay [2], 6500 nM.

Turning to `COc1cc2nc(C)nc(NC(C)c3ccc(-c4cnc5n4CCC5)s3)c2cc1OC` (single isomer, unassigned; enantiomer 2) [Example 329, N-{1-[5-(6,7-dihydro-5H-pyrrolo[1,2-a]imidazol-3-yl)thiophen-2-yl]ethyl}-6,7-dimethoxy-2-methylquinazolin-4-amine, Enantiomer 2], the IC50 in assay [1] was 6470 nM; in assay [2], 2410 nM.

For the compound `COc1cc2nc(C)nc(NC(C)c3cc(-c4ccn(CCO)n4)cs3)c2cc1OC` (centres unmarked) [Example 273, 2-[3-(5-{1-[(6,7-dimethoxy-2-methylquinazolin-4-yl)amino]ethyl}thiophen-3-yl)-1H-pyrazol-1-yl]ethanol], the IC50 in assay [1] is 2360 nM; in assay [2], 2320 nM.

As to `COc1cc2nc(C)nc(NC(C)c3ccc(-c4ccccc4CN4CCN(C)CC4)s3)c2cc1OC` (centres unmarked) [Example 308, 6,7-dimethoxy-2-methyl-N-[1-(5-{2-[(4-methylpiperazin-1-yl)methyl]phenyl}thiophen-2-yl)ethyl]quinazolin-4-amine], the IC50 in assay [1] was found to be 229 nM; in assay [2], 260 nM.

As for `COc1cc2nc(C)nc(NC(C)c3ccc(-c4ccccc4CN(C)CCO)s3)c2cc1OC` (centres unmarked) [Example 298, 2-{[2-(5-{1-[(6,7-dimethoxy-2-methylquinazolin-4-yl)amino]ethyl}thiophen-2-yl)benzyl](methyl)amino}ethanol], the half-maximal inhibitory concentration (IC50) in assay [1] was determined as 49.3 nM; in assay [2], 47.2 nM.

For `COc1cc2nc(C)nc(NC(C)c3ccc(-c4ccc(CN)o4)s3)c2cc1OC` (centres unmarked) [Example 275, N-[1-{5-[5-(aminomethyl)furan-2-yl]thiophen-2-yl}ethyl]-6,7-dimethoxy-2-methylquinazolin-4-amine], the IC50 in assay [1] stood at 2970 nM; in assay [2] it was 2800 nM.

In the case of `COc1cc2nc(C)nc(NC(C)c3cncc4sccc34)c2cc1OC` (centres unmarked) [Example 332, 6,7-dimethoxy-2-methyl-N-[1-(thieno[2,3-c]pyridin-4-yl)ethyl]quinazolin-4-amine], the figures for the IC50 in assay [1] and in assay [2] were 2620 nM and 2250 nM, respectively.

Source of the values: patent publication US20240083857A1, “2-Methyl-Quinazolines” (Bayer Pharma Aktiengesellschaft, priority 2017, published 2024).
